The nature of one data set: Film heat resistance (visual defects after baking). Conditions: film baked at 110° C. for 5 minutes. Type of data set: physicochemical. Also noted: key: A: No visual defects in the film; C: Visual defects in the film (including the loss of films). On the procedure: (§1) The compositions for forming optical components were each prepared so that the amount of the compound shown in the following table was 5% by mass in propylene glycol methyl ether. Next, a silicon substrate was spin coated with each of these compositions for forming an optical component, and then baked at 110° C. for 60 seconds to prepare an optical component forming film each having a film thickness of 1000 nm.
The optical component forming film was baked at 110° C. for 5 minutes to evaluate the film heat resistance.
In the case of `C=C(C)C(=O)OCC(O)COc1ccc2ccc3c(c2c1)C(c1ccc2ccccc2c1)c1c(ccc2ccc(OCC(O)COC(=O)C(=C)C)cc12)O3` (stereo not shown) [BiN-1-Ea], the “Evaluation of film heat resistance” value is “A”.
For `OCCOc1ccc2ccc3c(c2c1)C(c1ccc2ccccc2c1)c1c(ccc2ccc(OCCO)cc12)O3` [BiN-1-E], the “Evaluation of film heat resistance” value was “A”.
On the same count and under the same terms, to `Oc1ccc2ccc3c(c2c1)C(c1cccc2ccccc12)c1c(ccc2ccc(O)cc12)O3` [BiN-2] belongs “A”; to `C=CC(=O)Oc1ccc2ccc3c(c2c1)C(c1ccc2ccccc2c1)c1c(ccc2ccc(OC(=O)C=C)cc12)O3` [BiN-1-Ac], “A”.
The same measure, in the same setting: the result for `Oc1ccc(Oc2ccc3ccc4c(c3c2)C(c2ccc3ccccc3c2)c2c(ccc3ccc(Oc5ccc(O)cc5)cc23)O4)cc1` [BiN-1-PX] reads “A”; that for `Oc1ccc2c(C(c3ccc4ccccc4c3)c3c(O)ccc4cc(O)ccc34)c(O)ccc2c1` [BiN-3U], “A”.
On the same count and under the same terms, to `C=Cc1ccc(COc2ccc3ccc4c(c3c2)C(c2ccc3ccccc3c2)c2c(ccc3ccc(OCc5ccc(C=C)cc5)cc23)O4)cc1` [BiN-1-SX] belongs “A”; to `Oc1cc2ccccc2c(C(c2ccc3ccccc3c2)c2c(O)c(O)cc3ccccc23)c1O` [BiN-5U], “A”; to `Oc1ccc2ccc(O)c(C(c3ccc4ccccc4c3)c3c(O)ccc4ccc(O)cc34)c2c1` [BiN-1U], “A”.
For the compound `C=C(C)C(=O)OCCC(N)C(=O)Oc1ccc2ccc3c(c2c1)C(c1ccc2ccccc2c1)c1c(ccc2ccc(OC(=O)C(N)CCOC(=O)C(=C)C)cc12)O3` (stereo not shown) [BiN-1-Ua], the “Evaluation of film heat resistance” value was “A”.

A further data set is described as follows: Refractive index of optical component forming film (spectroscopic ellipsometer). Type of data set: physicochemical. Conditions: wavelength 633 nm; 1000 nm film from 5% by mass composition, baked 110° C. 60 seconds. As for the experimental part: as §1
(§2) Then, tests for the refractive index and the transparency at a wavelength of 633 nm were carried out by using a vacuum ultraviolet with variable angle spectroscopic ellipsometer (model name: VUV-VASE) manufactured by J.A. Woollam Japan, and the refractive index and the transparency were evaluated.
Turning to `C=C(C)C(=O)OCC(O)COc1ccc2ccc3c(c2c1)C(c1ccc2ccccc2c1)c1c(ccc2ccc(OCC(O)COC(=O)C(=C)C)cc12)O3` (stereo not shown) [BiN-1-Ea], the “Evaluation of refractive index” value is “B (The refractive index is 1.65 or more and less than 1.75.)”.
Same read-out and setting: the result for `OCCOc1ccc2ccc3c(c2c1)C(c1ccc2ccccc2c1)c1c(ccc2ccc(OCCO)cc12)O3` [BiN-1-E] reads “B (The refractive index is 1.65 or more and less than 1.75.)”; that for `Oc1ccc2ccc3c(c2c1)C(c1cccc2ccccc12)c1c(ccc2ccc(O)cc12)O3` [BiN-2], “A (The refractive index is 1.75 or more.)”.
As to `C=CC(=O)Oc1ccc2ccc3c(c2c1)C(c1ccc2ccccc2c1)c1c(ccc2ccc(OC(=O)C=C)cc12)O3` [BiN-1-Ac], the “Evaluation of refractive index” value was “B (The refractive index is 1.65 or more and less than 1.75.)”.
For `Oc1ccc(Oc2ccc3ccc4c(c3c2)C(c2ccc3ccccc3c2)c2c(ccc3ccc(Oc5ccc(O)cc5)cc23)O4)cc1` [BiN-1-PX], the “Evaluation of refractive index” value is listed as “A (The refractive index is 1.75 or more.)”.
Still for that read-out and setting: to `Oc1ccc2c(C(c3ccc4ccccc4c3)c3c(O)ccc4cc(O)ccc34)c(O)ccc2c1` [BiN-3U] belongs “A (The refractive index is 1.75 or more.)”; to `C=Cc1ccc(COc2ccc3ccc4c(c3c2)C(c2ccc3ccccc3c2)c2c(ccc3ccc(OCc5ccc(C=C)cc5)cc23)O4)cc1` [BiN-1-SX], “A (The refractive index is 1.75 or more.)”; to `Oc1cc2ccccc2c(C(c2ccc3ccccc3c2)c2c(O)c(O)cc3ccccc23)c1O` [BiN-5U], “A (The refractive index is 1.75 or more.)”.
The same measure, in the same setting: the result for `Oc1ccc2ccc(O)c(C(c3ccc4ccccc4c3)c3c(O)ccc4ccc(O)cc34)c2c1` [BiN-1U] reads “A (The refractive index is 1.75 or more.)”; that for `C=C(C)C(=O)OCCC(N)C(=O)Oc1ccc2ccc3c(c2c1)C(c1ccc2ccccc2c1)c1c(ccc2ccc(OC(=O)C(N)CCOC(=O)C(=C)C)cc12)O3` (stereo not shown) [BiN-1-Ua], “B (The refractive index is 1.65 or more and less than 1.75.)”.

The nature of another data set: Transparency (absorption coefficient) of optical component forming film. Conditions: absorption coefficient at wavelength 633 nm; 1000 nm film, baked 110° C. 60 seconds. Type of data set: physicochemical. As for the experimental part: as §1, §2
Take `C=C(C)C(=O)OCC(O)COc1ccc2ccc3c(c2c1)C(c1ccc2ccccc2c1)c1c(ccc2ccc(OCC(O)COC(=O)C(=C)C)cc12)O3` (stereo not shown) [BiN-1-Ea]: the Evaluation of transparency entry is listed as “A (The absorption coefficient is less than 0.03.)”.
On the same count and under the same terms, the result for `OCCOc1ccc2ccc3c(c2c1)C(c1ccc2ccccc2c1)c1c(ccc2ccc(OCCO)cc12)O3` [BiN-1-E] reads “A (The absorption coefficient is less than 0.03.)”.
On to `Oc1ccc2ccc3c(c2c1)C(c1cccc2ccccc12)c1c(ccc2ccc(O)cc12)O3` [BiN-2], for which the Evaluation of transparency result is “A (The absorption coefficient is less than 0.03.)”.
On the same count and under the same terms, the result for `C=CC(=O)Oc1ccc2ccc3c(c2c1)C(c1ccc2ccccc2c1)c1c(ccc2ccc(OC(=O)C=C)cc12)O3` [BiN-1-Ac] reads “A (The absorption coefficient is less than 0.03.)”; that for `Oc1ccc(Oc2ccc3ccc4c(c3c2)C(c2ccc3ccccc3c2)c2c(ccc3ccc(Oc5ccc(O)cc5)cc23)O4)cc1` [BiN-1-PX], “A (The absorption coefficient is less than 0.03.)”; that for `Oc1ccc2c(C(c3ccc4ccccc4c3)c3c(O)ccc4cc(O)ccc34)c(O)ccc2c1` [BiN-3U], “A (The absorption coefficient is less than 0.03.)”.
On the same count and under the same terms, the result for `C=Cc1ccc(COc2ccc3ccc4c(c3c2)C(c2ccc3ccccc3c2)c2c(ccc3ccc(OCc5ccc(C=C)cc5)cc23)O4)cc1` [BiN-1-SX] reads “A (The absorption coefficient is less than 0.03.)”; that for `Oc1cc2ccccc2c(C(c2ccc3ccccc3c2)c2c(O)c(O)cc3ccccc23)c1O` [BiN-5U], “A (The absorption coefficient is less than 0.03.)”.
The same measure, in the same setting: to `Oc1ccc2ccc(O)c(C(c3ccc4ccccc4c3)c3c(O)ccc4ccc(O)cc34)c2c1` [BiN-1U] belongs “A (The absorption coefficient is less than 0.03.)”.
For `C=C(C)C(=O)OCCC(N)C(=O)Oc1ccc2ccc3c(c2c1)C(c1ccc2ccccc2c1)c1c(ccc2ccc(OC(=O)C(N)CCOC(=O)C(=C)C)cc12)O3` (stereo not shown) [BiN-1-Ua], the Evaluation of transparency entry is “A (The absorption coefficient is less than 0.03.)”.

A further data set can be described thus: Solubility test in organic solvent (amount of dissolution). Conditions: amount of dissolution in propylene glycol monomethyl ether, 23° C., ultrasonic waves 30 minutes, visual observation. Type of data set: physicochemical. On the procedure:
With respect to the solubility of each compound in an organic solvent, the solubility of the compound in propylene glycol monomethyl ether was measured. The solubility was evaluated according to the following criteria, using the amount of dissolution in propylene glycol monomethyl ether. For the measurement of the amount of dissolution, the evaluation was carried out by precisely weighing the compound in a test tube at 23° C., […], applying ultrasonic waves for 30 minutes with an ultrasonic cleaning machine, visually observing the subsequent state of the liquid, and determining the concentration of the completely dissolved amount as the basis.
`C=C(C)C(=O)OCC(O)COc1ccc2ccc3c(c2c1)C(c1ccc2ccccc2c1)c1c(ccc2ccc(OCC(O)COC(=O)C(=C)C)cc12)O3` (stereo not shown) [BiN-1-Ea]: the Solubility test result was “A (5.0% by mass≤amount of dissolution)”.
On the same count and under the same terms, to `OCCOc1ccc2ccc3c(c2c1)C(c1ccc2ccccc2c1)c1c(ccc2ccc(OCCO)cc12)O3` [BiN-1-E] belongs “A (5.0% by mass≤amount of dissolution)”.
The same measure, in the same setting: to `Oc1ccc2ccc3c(c2c1)C(c1cccc2ccccc12)c1c(ccc2ccc(O)cc12)O3` [BiN-2] belongs “A (5.0% by mass≤amount of dissolution)”.
Still for that read-out and setting: the result for `C=CC(=O)Oc1ccc2ccc3c(c2c1)C(c1ccc2ccccc2c1)c1c(ccc2ccc(OC(=O)C=C)cc12)O3` [BiN-1-Ac] reads “A (5.0% by mass≤amount of dissolution)”; that for `Oc1ccc(Oc2ccc3ccc4c(c3c2)C(c2ccc3ccccc3c2)c2c(ccc3ccc(Oc5ccc(O)cc5)cc23)O4)cc1` [BiN-1-PX], “A (5.0% by mass≤amount of dissolution)”.
As for `Oc1ccc2c(C(c3ccc4ccccc4c3)c3c(O)ccc4cc(O)ccc34)c(O)ccc2c1` [BiN-3U], the Solubility test result is “A (5.0% by mass≤amount of dissolution)”.
On to `C=Cc1ccc(COc2ccc3ccc4c(c3c2)C(c2ccc3ccccc3c2)c2c(ccc3ccc(OCc5ccc(C=C)cc5)cc23)O4)cc1` [BiN-1-SX], for which the Solubility test entry is recorded as “A (5.0% by mass≤amount of dissolution)”.
Same read-out and setting: to `Oc1cc2ccccc2c(C(c2ccc3ccccc3c2)c2c(O)c(O)cc3ccccc23)c1O` [BiN-5U] belongs “A (5.0% by mass≤amount of dissolution)”; to `Oc1ccc2ccc(O)c(C(c3ccc4ccccc4c3)c3c(O)ccc4ccc(O)cc34)c2c1` [BiN-1U], “A (5.0% by mass≤amount of dissolution)”.
On the same count and under the same terms, to `C=C(C)C(=O)OCCC(N)C(=O)Oc1ccc2ccc3c(c2c1)C(c1ccc2ccccc2c1)c1c(ccc2ccc(OC(=O)C(N)CCOC(=O)C(=C)C)cc12)O3` (stereo not shown) [BiN-1-Ua] belongs “A (5.0% by mass≤amount of dissolution)”.

(Values after US20210309595A1, “COMPOSITION FOR FORMING OPTICAL COMPONENT, OPTICAL COMPONENT, COMPOUND, AND RESIN” (Mitsubishi Gas Chemical Company, Inc., priority 2018, published 2021).)
